Measured values reported in PubChem BioAssay (NCI).
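Cultured in 96-well plates, cells were exposed to test compound for 48 hours across five concentrations. GI50: concentration for 50% inhibition of growth. TGI: total growth inhibition.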

Key:
Experiment in all cases: growth of human tumour cells (NCI), 48 h
HCC-2998 colon = tested on: HCC-2998 colon
HOP-92 NSCLC = tested on: HOP-92 NSCLC
OVCAR-8 ovarian = tested on: OVCAR-8 ovarian
EKVX NSCLC = tested on: EKVX NSCLC
KM12 colon = tested on: KM12 colon
UO-31 renal = tested on: UO-31 renal
SK-MEL-5 melanoma = tested on: SK-MEL-5 melanoma
HL-60(TB) leukemia = tested on: HL-60(TB) leukemia
MALME-3M melanoma = tested on: MALME-3M melanoma
UACC-62 melanoma = tested on: UACC-62 melanoma

COc1cc(C(=O)CC2(O)C(=O)Nc3c(Cl)cc(Cl)cc32)ccc1O (stereo unspecified)
TGI (HCC-2998 colon): 88.7 µM | TGI (HOP-92 NSCLC): > 100 µM | TGI (OVCAR-8 ovarian): > 100 µM | TGI (EKVX NSCLC): > 100 µM | TGI (KM12 colon): > 100 µM | TGI (UO-31 renal): > 100 µM | TGI (SK-MEL-5 melanoma): > 100 µM | TGI (HL-60(TB) leukemia): > 100 µM | TGI (MALME-3M melanoma): > 100 µM

N=C(N)c1ccc(-c2ccc(-c3cccs3)s2)nc1
GI50 (HCC-2998 colon): 0.771 µM | TGI (HCC-2998 colon): 2.08 µM | GI50 (HOP-92 NSCLC): 0.46 µM | TGI (HOP-92 NSCLC): 2.23 µM | GI50 (OVCAR-8 ovarian): 1.59 µM | TGI (OVCAR-8 ovarian): 4.06 µM | GI50 (UACC-62 melanoma): 1.7 µM | TGI (UACC-62 melanoma): 3.22 µM | GI50 (KM12 colon): 1.88 µM | TGI (KM12 colon): 3.6 µM | GI50 (UO-31 renal): 0.545 µM | TGI (UO-31 renal): 3.92 µM | GI50 (SK-MEL-5 melanoma): 1.8 µM | TGI (SK-MEL-5 melanoma): 3.78 µM | GI50 (HL-60(TB) leukemia): 1.78 µM | TGI (HL-60(TB) leukemia): 4.01 µM | GI50 (MALME-3M melanoma): 1.96 µM | TGI (MALME-3M melanoma): 3.57 µM

CSC1C(=O)c2ccccc2/C(=N/Nc2nc3ccccc3s2)C1C (stereo unspecified)
GI50 (HOP-92 NSCLC): 7.93 µM | TGI (HOP-92 NSCLC): 25.2 µM | GI50 (OVCAR-8 ovarian): 10.7 µM | TGI (OVCAR-8 ovarian): 28.6 µM | GI50 (EKVX NSCLC): 8.44 µM | TGI (EKVX NSCLC): 18.4 µM | GI50 (UACC-62 melanoma): 8.67 µM | TGI (UACC-62 melanoma): 16.5 µM | GI50 (KM12 colon): 18.7 µM | TGI (KM12 colon): > 50 µM | GI50 (UO-31 renal): 6.02 µM | TGI (UO-31 renal): 13.8 µM | GI50 (SK-MEL-5 melanoma): 1.6 µM | TGI (SK-MEL-5 melanoma): 9.78 µM | GI50 (HL-60(TB) leukemia): 2.14 µM | TGI (HL-60(TB) leukemia): 43 µM

O=C(CCCCCCC(=O)Nc1ccc2c(c1)/C(=C/c1ccc[nH]1)C(=O)N2)NO
GI50 (HCC-2998 colon): 1.64 µM | TGI (HCC-2998 colon): 10.9 µM | GI50 (HOP-92 NSCLC): 0.317 µM | TGI (HOP-92 NSCLC): 2.76 µM | GI50 (OVCAR-8 ovarian): 0.472 µM | TGI (OVCAR-8 ovarian): > 89.4 µM | GI50 (UACC-62 melanoma): 0.287 µM | TGI (UACC-62 melanoma): 1.39 µM | GI50 (KM12 colon): 0.894 µM | TGI (KM12 colon): > 23.2 µM | GI50 (UO-31 renal): 0.963 µM | TGI (UO-31 renal): > 100 µM | GI50 (SK-MEL-5 melanoma): 0.24 µM | TGI (SK-MEL-5 melanoma): 1.41 µM | GI50 (HL-60(TB) leukemia): 0.464 µM | TGI (HL-60(TB) leukemia): > 100 µM | GI50 (MALME-3M melanoma): 0.0758 µM | TGI (MALME-3M melanoma): 35.4 µM

COC(=O)[C@@]1(O)C[C@H]2O[C@]1(C)n1c3ccccc3c3c4c(c5c6ccccc6n2c5c31)C(=O)NC4
GI50 (HCC-2998 colon): 0.609 µM | TGI (HCC-2998 colon): 2.8 µM | GI50 (HOP-92 NSCLC): 0.188 µM | TGI (HOP-92 NSCLC): 0.88 µM | GI50 (OVCAR-8 ovarian): 0.589 µM | TGI (OVCAR-8 ovarian): 4.08 µM | GI50 (EKVX NSCLC): 1.92 µM | TGI (EKVX NSCLC): 7.58 µM | GI50 (UACC-62 melanoma): 0.132 µM | TGI (UACC-62 melanoma): 1.55 µM | GI50 (KM12 colon): 0.0269 µM | TGI (KM12 colon): 1.07 µM | GI50 (UO-31 renal): 0.0256 µM | TGI (UO-31 renal): 1.37 µM | GI50 (HL-60(TB) leukemia): 0.868 µM | GI50 (MALME-3M melanoma): 0.186 µM | TGI (MALME-3M melanoma): 1.52 µM

O=C(N/C(=C\c1ccc(Oc2ccc(Cl)c(Cl)c2)cc1)c1nc2ccccc2[nH]1)c1ccccc1
TGI (HCC-2998 colon): 31.7 µM | TGI (HOP-92 NSCLC): 23.5 µM | TGI (OVCAR-8 ovarian): 28.6 µM | TGI (EKVX NSCLC): 50.5 µM | TGI (UACC-62 melanoma): 33.5 µM | TGI (KM12 colon): 30.4 µM | TGI (UO-31 renal): 27.6 µM | TGI (SK-MEL-5 melanoma): 30.4 µM | TGI (MALME-3M melanoma): 43.8 µM

Cc1ccc(N2C(=O)/C(=C/c3ccc(N(CCC#N)CCC#N)cc3C)N=C2c2cc([N+](=O)[O-])ccc2Cl)cc1
TGI (HCC-2998 colon): > 100 µM | TGI (HOP-92 NSCLC): > 100 µM | TGI (OVCAR-8 ovarian): > 100 µM | TGI (UACC-62 melanoma): > 100 µM | TGI (KM12 colon): > 100 µM | TGI (UO-31 renal): > 100 µM | TGI (SK-MEL-5 melanoma): > 100 µM | TGI (HL-60(TB) leukemia): > 100 µM | TGI (MALME-3M melanoma): > 100 µM

Cc1cccc2c1C/C(=C1\CCc3c(C)cccc31)C2=O
TGI (HCC-2998 colon): > 100 µM | TGI (OVCAR-8 ovarian): > 100 µM | TGI (EKVX NSCLC): > 100 µM | TGI (UACC-62 melanoma): > 100 µM | TGI (KM12 colon): > 100 µM | TGI (UO-31 renal): > 100 µM | TGI (SK-MEL-5 melanoma): > 100 µM | TGI (HL-60(TB) leukemia): > 100 µM | TGI (MALME-3M melanoma): > 100 µM

CN(C)CCNC(=O)c1cc2c3ccccc3[nH]c2c2ncccc12
GI50 (HOP-92 NSCLC): 8.01 µM | TGI (HOP-92 NSCLC): 40.6 µM | GI50 (OVCAR-8 ovarian): 6.11 µM | TGI (OVCAR-8 ovarian): 40.9 µM | GI50 (EKVX NSCLC): 7.81 µM | TGI (EKVX NSCLC): 38.2 µM | GI50 (UACC-62 melanoma): 13.4 µM | TGI (UACC-62 melanoma): 28 µM | GI50 (KM12 colon): 12.8 µM | TGI (KM12 colon): 77.4 µM | GI50 (UO-31 renal): 2.13 µM | TGI (UO-31 renal): 24.3 µM | GI50 (SK-MEL-5 melanoma): 6.05 µM | TGI (SK-MEL-5 melanoma): 20.1 µM | GI50 (HL-60(TB) leukemia): 10.2 µM | TGI (HL-60(TB) leukemia): 30 µM | GI50 (MALME-3M melanoma): 10.7 µM | TGI (MALME-3M melanoma): 26.5 µM

CCCCCCCCCCCC[n+]1ccc(C(N)=O)cc1
GI50 (HCC-2998 colon): 2.71 µM | TGI (HCC-2998 colon): 10.9 µM | GI50 (OVCAR-8 ovarian): 3.34 µM | TGI (OVCAR-8 ovarian): 13.1 µM | GI50 (EKVX NSCLC): 2.55 µM | TGI (EKVX NSCLC): 12.8 µM | GI50 (UACC-62 melanoma): 2.74 µM | TGI (UACC-62 melanoma): 11.6 µM | GI50 (KM12 colon): 1.43 µM | TGI (KM12 colon): 3 µM | GI50 (UO-31 renal): 9.08 µM | TGI (UO-31 renal): 24.7 µM | GI50 (SK-MEL-5 melanoma): 1.63 µM | TGI (SK-MEL-5 melanoma): 3.05 µM | GI50 (MALME-3M melanoma): 2.59 µM | TGI (MALME-3M melanoma): 8.81 µM

CC1=C(C(=O)Nc2ccc(F)c(Cl)c2)C(c2cccc(Oc3ccccc3)c2)NC(=O)N1 (stereo unspecified)
GI50 (HCC-2998 colon): 14.6 µM | TGI (HCC-2998 colon): 27.8 µM | GI50 (HOP-92 NSCLC): 12 µM | TGI (HOP-92 NSCLC): 24.9 µM | GI50 (OVCAR-8 ovarian): 18 µM | TGI (OVCAR-8 ovarian): 43.7 µM | GI50 (EKVX NSCLC): 14.8 µM | TGI (EKVX NSCLC): 31.8 µM | GI50 (UACC-62 melanoma): 12.4 µM | TGI (UACC-62 melanoma): 24.8 µM | GI50 (KM12 colon): 14.9 µM | TGI (KM12 colon): 34.3 µM | GI50 (UO-31 renal): 12.2 µM | TGI (UO-31 renal): 26 µM | GI50 (SK-MEL-5 melanoma): 13.2 µM | TGI (SK-MEL-5 melanoma): 26.5 µM | GI50 (HL-60(TB) leukemia): 8.07 µM | TGI (HL-60(TB) leukemia): 24.7 µM

CC1=Nn2c(nnc2-c2ccc(N)cc2)NC(C)(C)C1
TGI (HCC-2998 colon): > 100 µM | TGI (HOP-92 NSCLC): > 100 µM | TGI (EKVX NSCLC): > 100 µM | TGI (UACC-62 melanoma): > 100 µM | TGI (KM12 colon): > 100 µM | TGI (UO-31 renal): > 100 µM | TGI (SK-MEL-5 melanoma): > 100 µM | TGI (HL-60(TB) leukemia): > 100 µM | TGI (MALME-3M melanoma): > 100 µM

NC(CCSC(F)F)C(=O)O (stereo unspecified)
TGI (HCC-2998 colon): > 100 µM | TGI (HOP-92 NSCLC): > 100 µM | TGI (OVCAR-8 ovarian): > 100 µM | TGI (EKVX NSCLC): > 100 µM | TGI (UACC-62 melanoma): > 100 µM | TGI (KM12 colon): > 100 µM | TGI (UO-31 renal): > 100 µM | TGI (SK-MEL-5 melanoma): > 100 µM | TGI (MALME-3M melanoma): > 100 µM

S=C(Nc1ccccc1)N(Cc1ccccc1)c1ccccc1
TGI (HCC-2998 colon): > 100 µM | TGI (HOP-92 NSCLC): > 100 µM | TGI (EKVX NSCLC): 58.4 µM | TGI (UACC-62 melanoma): 70.7 µM | TGI (KM12 colon): 69.6 µM | TGI (UO-31 renal): > 100 µM | TGI (SK-MEL-5 melanoma): 28.5 µM | TGI (HL-60(TB) leukemia): > 100 µM | TGI (MALME-3M melanoma): 37.2 µM

CCOc1ccccc1NC(=O)C1=C(C)NC(C)=C(C(=O)Nc2ccccc2OCC)C1c1ccc(NC(C)=O)cc1
TGI (HCC-2998 colon): 35.7 µM | TGI (HOP-92 NSCLC): > 100 µM | TGI (OVCAR-8 ovarian): > 100 µM | TGI (EKVX NSCLC): > 100 µM | TGI (KM12 colon): > 100 µM | TGI (UO-31 renal): > 100 µM | TGI (SK-MEL-5 melanoma): > 100 µM | TGI (HL-60(TB) leukemia): > 100 µM | TGI (MALME-3M melanoma): > 100 µM

Cc1cccc2c1C(=O)OC2(C)c1cccc2ccccc12 (stereo unspecified)
TGI (HCC-2998 colon): 50.9 µM | TGI (HOP-92 NSCLC): 61.4 µM | TGI (OVCAR-8 ovarian): > 100 µM | TGI (EKVX NSCLC): > 100 µM | TGI (KM12 colon): > 100 µM | TGI (UO-31 renal): > 100 µM | TGI (SK-MEL-5 melanoma): 45.3 µM | TGI (HL-60(TB) leukemia): 46.2 µM | TGI (MALME-3M melanoma): > 100 µM

O=C(CN1C(=O)c2ccccc2C1=O)C(O)CN1C(=O)c2ccccc2C1=O (stereo unspecified)
TGI (HCC-2998 colon): > 100 µM | TGI (HOP-92 NSCLC): > 100 µM | TGI (OVCAR-8 ovarian): > 100 µM | TGI (EKVX NSCLC): > 100 µM | TGI (UACC-62 melanoma): > 100 µM | TGI (KM12 colon): > 100 µM | TGI (UO-31 renal): > 100 µM | TGI (SK-MEL-5 melanoma): > 100 µM | TGI (HL-60(TB) leukemia): > 100 µM
